These results are taken from ChEMBL document CHEMBL1201862, “PubChem BioAssay data set” (2004).

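Step 1: Grow cells in 96-well plates. Step 2: Expose to compound for 48 hours at 5 concentrations. Step 3: Interpolate endpoints linearly; if unreached, use highest concentration. At the GI50, growth is halved.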 Active and inactive are the calls of the source. Cut-off read from the data, not from the text of the source: active = GI50 up to about 1.1 µM and inactive = higher.

What all share (assay): growth of human tumour cells (NCI), 48 h
Assay [1] concerns HT-29.
For assay [2], the system named is CCRF-CEM.
In assay [3] the test system is RXF 393.
In assay [4] the test system is NCI-H460.
Assay [5] deals with OVCAR-4.
Assay [6] has as its system A498.
Assay [7] relates to UO-31.
Assay [8] relates to NCI-H522.
In assay [9] the test system is CAKI-1.
Assay [10] has as its system A549.
For assay [11], the system named is OVCAR-8.
Assay [12] concerns RPMI-8226.
The subject of assay [13] is SK-OV-3.
In assay [14] the test system is U-251.
In assay [15] the test system is T47D.
Assay [16] concerns 786-0.
For assay [17], the system named is DU-145.
Assay [18] concerns OVCAR-3.
Assay [19] deals with OVCAR-5.
The subject of assay [20] is MOLT-4.

As for `COc1cc2c3c4[n+](cc2c(OC)c1OC)CCC4CCC3` (stereo not given), the GI50 is > 100 µM (inactive) in assay [1]; > 62.1 µM (inactive) in assay [2]; > 84.3 µM (inactive) in assay [3]; > 100 µM (inactive) in assay [4]; > 100 µM (inactive) in assay [5]; > 100 µM (inactive) in assay [6]. Further, the GI50 was > 100 µM (inactive) in assay [7]; 51.3 µM (inactive) in [8]; > 100 µM (inactive) in assay [9]; > 100 µM (inactive) in [10]; > 100 µM (inactive) in assay [11]; 40.4 µM (inactive) in [12]. Also, the GI50 was > 100 µM (inactive) in assay [13]; 53.8 µM (inactive) in assay [14]; 24.9 µM (inactive) in assay [15]; > 100 µM (inactive) in [16]; > 100 µM (inactive) in assay [17]; 46.9 µM (inactive) in assay [18]. Further, the GI50 in [19] and in assay [20] was > 100 µM (inactive) in each case.

Take `Cc1cc(O)nc(NN2C(Cl)C(=O)C2c2ccc(O)cc2)n1` (stereo not given): the GI50 is 6.65 µM (inactive) in assay [1]; 2.81 µM (inactive) in assay [2]; 4.26 µM (inactive) in assay [3]; 4.8 µM (inactive) in [4]; 6.95 µM (inactive) in [5]; 9.75 µM (inactive) in assay [6]. The GI50 in assay [7] is 10.5 µM (inactive); in assay [8], 15 µM (inactive); in assay [9], 7.13 µM (inactive); in assay [10], 13.6 µM (inactive); in assay [11] it was 12.6 µM (inactive); in assay [12] it was 2.22 µM (inactive). For the same compound, the GI50 was 11.3 µM (inactive) in assay [13]; 5.4 µM (inactive) in [14]; 12.7 µM (inactive) in [15]; 5.14 µM (inactive) in assay [16]; 10.9 µM (inactive) in assay [17]; 6.28 µM (inactive) in [18]. In addition, the results for the GI50 in [19] and in assay [20] were 17.8 µM (inactive) and 5.33 µM (inactive), respectively.

Regarding `COC(=O)C1=CCC[C@H]2[C@@]1(COC(C)=O)CC[C@@H](C)[C@]2(C)CC(=O)c1ccoc1`, the GI50 in [1] was 8.65 µM (inactive); in [2], 10.3 µM (inactive); in assay [3], 19.6 µM (inactive); in assay [4] it was 14.3 µM (inactive); in assay [5] it was 14.5 µM (inactive); in assay [6], 16.7 µM (inactive). For the same compound, the GI50 is 13.4 µM (inactive) in assay [7]; 7.87 µM (inactive) in [8]; 18.6 µM (inactive) in [9]; 19 µM (inactive) in assay [10]; 17.9 µM (inactive) in assay [11]; 11.4 µM (inactive) in assay [12]. Also, the GI50 in assay [13] was 47.5 µM (inactive); in assay [14], 21.2 µM (inactive); in [15], 8.47 µM (inactive); in assay [16] it was 15.2 µM (inactive); in [17] it was 21.5 µM (inactive); in assay [18], 15.7 µM (inactive). The GI50 in assay [19] is 49 µM (inactive); in assay [20] it was 10.5 µM (inactive).

Take `CCCCn1c2c(n(CCCC)c1=S)-c1c(n(CCCC)c(=S)n1CCCC)SSc1c(n(CCCC)c(=S)n1CCCC)-c1c(n(CCCC)c(=S)n1CCCC)SSc1c(n(CCCC)c(=S)n1CCCC)-c1c(n(CCCC)c(=S)n1CCCC)SS2`: the GI50 in assay [1] is 11.6 µM (inactive); in assay [2], 1.19 µM (inactive); in assay [3], 2.72 µM (inactive); in [4], > 31 µM (inactive); in assay [5] it was 1.73 µM (inactive); in assay [6] it was > 50 µM (inactive). The GI50 is 6.47 µM (inactive) in [7]; 0.78 µM (active) in [8]; 10.2 µM (inactive) in assay [9]; > 50 µM (inactive) in assay [10]; 1.77 µM (inactive) in assay [11]; 1.99 µM (inactive) in assay [12]. Also, the GI50 in [13] was > 29.2 µM (inactive); in [14], 2.15 µM (inactive); in assay [15] it was 1.5 µM (inactive); in [16], 3.56 µM (inactive); in [17], 29.8 µM (inactive); in assay [18], 1.87 µM (inactive). Further, the GI50 in [19] was 9.12 µM (inactive); in assay [20], 2.32 µM (inactive).

As to `Cc1ccc2nc(/C=N/c3ccc(Cl)cc3)cc(C)c2c1`, the GI50 in assay [1] was 2.64 µM (inactive); in assay [2] it was 1.06 µM (active); in assay [3], 24.7 µM (inactive); in assay [4], 0.729 µM (active); in assay [5] it was 20.3 µM (inactive); in [6] it was > 80.4 µM (inactive). Moreover, the GI50 in assay [7] is 0.381 µM (active); in assay [8], 2.65 µM (inactive); in [9], 1.38 µM (inactive); in assay [10] it was 1.24 µM (inactive); in [11], 10.3 µM (inactive); in assay [12], 1.24 µM (inactive). In addition, the GI50 in [13] is 16.8 µM (inactive); in [14], 8.47 µM (inactive); in assay [15] it was 2.54 µM (inactive); in assay [16], 10.6 µM (inactive); in [17], 0.659 µM (active); in assay [18] it was 9.84 µM (inactive). Moreover, the results for the GI50 in [19] and in [20] were 3.67 µM (inactive) and 1.12 µM (inactive), respectively.

On to `N#CC(Cl)CS(=O)(=O)c1ccccc1` (stereo not given), for which the GI50 in [1] is 7.66 µM (inactive); in assay [2], 0.628 µM (active); in assay [3], 2.35 µM (inactive); in assay [4], 18.6 µM (inactive); in [5] it was 2.03 µM (inactive); in [6], 13.6 µM (inactive). In addition, the GI50 in assay [7] is 19.1 µM (inactive); in [8], 0.681 µM (active); in assay [9] it was 3.06 µM (inactive); in [10], 20.1 µM (inactive); in assay [11] it was 6.7 µM (inactive); in assay [12] it was 3.32 µM (inactive). The GI50 in assay [13] was 19.5 µM (inactive); in [14], 19.3 µM (inactive); in assay [15], 2.85 µM (inactive); in assay [16], 16.8 µM (inactive); in assay [17], 17.5 µM (inactive); in [18], 2.71 µM (inactive). The GI50 was 20.3 µM (inactive) in [19] and 1.34 µM (inactive) in assay [20].

For `C=C(C)[C@@H](C(=O)OC)N1C(=O)c2ccccc2C1=O`, the GI50 in [1], in assay [2], in [3], in assay [4], in [5] and in assay [6] was > 100 µM (inactive) in each case. Also, the GI50 in [7], in assay [8], in [9], in assay [10], in [11] and in assay [12] was > 100 µM (inactive) throughout. Besides, the GI50 in assay [13], in assay [14], in [15], in assay [16], in assay [17] and in assay [18] was > 100 µM (inactive) in each case. Moreover, the GI50 in assay [19] and in assay [20] was > 100 µM (inactive) each time.

In the case of `CCOC(=O)/C=C(/C(=O)OCC)n1cc(C)c(=O)[nH]c1=O`, the GI50 was 4.92 µM (inactive) in [1]; 1.37 µM (inactive) in assay [2]; 1.95 µM (inactive) in assay [3]; 14.6 µM (inactive) in assay [4]; 4.93 µM (inactive) in [5]; 12.9 µM (inactive) in [6]. The GI50 in assay [7] was 11.2 µM (inactive); in assay [8], 0.792 µM (active); in [9] it was 1.15 µM (inactive); in assay [10], 16.4 µM (inactive); in assay [11] it was 4.62 µM (inactive); in assay [12], 2.47 µM (inactive). The GI50 in assay [13] was 18.3 µM (inactive); in assay [14], 6.62 µM (inactive); in [15], 3.69 µM (inactive); in assay [16], 2.49 µM (inactive); in [17], 16.1 µM (inactive); in assay [18], 2.68 µM (inactive). For the same compound, the GI50 is 5.87 µM (inactive) in [19] and 2.44 µM (inactive) in [20].

Take `Cc1ccc(NC(=O)c2ccc(OP(=O)(O)Nc3ccc(C)cc3)cc2)cc1`: the GI50 in assay [1] was > 100 µM (inactive); in assay [2] it was > 100 µM (inactive); in assay [3] it was 50.7 µM (inactive); in assay [4] it was > 100 µM (inactive); in [5], > 100 µM (inactive); in assay [6] it was > 100 µM (inactive). The GI50 in assay [7] was 66.8 µM (inactive); in assay [8], 78.3 µM (inactive); in assay [9], > 100 µM (inactive); in assay [10] it was > 100 µM (inactive); in [11] it was > 100 µM (inactive); in assay [12] it was > 100 µM (inactive). Further, the GI50 in assay [13], in assay [14], in [15], in assay [16], in assay [17] and in [18] was > 100 µM (inactive) in each case. Also, the GI50 in assay [19] and in assay [20] was > 100 µM (inactive) each time.

Take `Cc1cc(C)c2c(O)cc(-c3ccc4ccccc4c3)nc2n1`: the GI50 in assay [1] is 12.1 µM (inactive); in assay [2] it was 11.6 µM (inactive); in assay [3] it was 71.6 µM (inactive); in assay [4], 9.84 µM (inactive); in assay [5], 14.6 µM (inactive); in [6] it was 3.9 µM (inactive). Further, the GI50 was 22.9 µM (inactive) in [7]; 21.4 µM (inactive) in assay [8]; 54.6 µM (inactive) in assay [9]; 12.5 µM (inactive) in [10]; 39 µM (inactive) in [11]; 6.31 µM (inactive) in [12]. Moreover, the GI50 in assay [13] is 33.3 µM (inactive); in [14], 16.7 µM (inactive); in assay [15] it was 17.3 µM (inactive); in [16] it was 39.8 µM (inactive); in [17], 21.7 µM (inactive); in [18] it was 32.4 µM (inactive). For the same compound, the GI50 in assay [19] was 43.8 µM (inactive); in assay [20], 3.66 µM (inactive).
